In patent publication US7728025B2, “2-heteroaryl-substituted benzimidazole derivative” (Banyu Pharmaceutical Co., Ltd., priority 2003, dated 2010):

Molecular target: T1, recombinant human liver GK (Homo sapiens, UniProt P35557)
T1 construct: made in house; host or cells: E. coli
T1 sequence (P35557 1-466 isoform P35557-2): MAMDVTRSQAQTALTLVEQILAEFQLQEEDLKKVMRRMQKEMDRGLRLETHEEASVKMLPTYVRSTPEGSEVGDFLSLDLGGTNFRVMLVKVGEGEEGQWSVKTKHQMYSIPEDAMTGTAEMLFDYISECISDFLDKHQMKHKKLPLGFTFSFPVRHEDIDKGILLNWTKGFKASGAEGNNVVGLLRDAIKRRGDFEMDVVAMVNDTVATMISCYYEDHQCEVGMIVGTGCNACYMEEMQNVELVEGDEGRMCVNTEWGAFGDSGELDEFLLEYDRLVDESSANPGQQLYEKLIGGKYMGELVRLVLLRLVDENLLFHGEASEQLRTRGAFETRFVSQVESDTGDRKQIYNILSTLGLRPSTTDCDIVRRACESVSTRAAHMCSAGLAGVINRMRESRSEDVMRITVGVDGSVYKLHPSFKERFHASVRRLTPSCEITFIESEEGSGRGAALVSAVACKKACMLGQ
Experiment: Glucokinase (GK) activation assay: Thio-NADH formation coupled with G6PDH, absorbance at 405 nm
Assay type: biochemical
Settings: final glucose concentration 2.5 mM, 30° C.; for Emax: OD level of DMSO control set as 100%
Source text: The glucokinase activity may be determined not by directly measuring glucose-6-phosphate but by measuring the level of Thio-NADH, which is produced when a reporter enzyme, glucose-6-phosphate dehydrogenase produces phosphogluconolactone from glucose-6-phosphate, and based on the level, the degree of glucokinase activity of the compound tested may be determined.
In this assay, used was a recombinant human liver GK, which was expressed by E. coli as a FLAG fusion protein therein and was purified by […] M2 AFFINITY GEL (Sigma).
Using a 96-well plate, the assay was carried out at 30° C. 69 μl of an assay buffer (25 mM Hepes Buffer/pH=7.2, 2 mM MgCl2, 1 mM ATP, 0.5 mM TNAD, 1 mM dithiothreitol) was put into the plate, and 1 μl of a DMSO solution of the compound or DMSO alone as a control was added thereto. Next, 20 μl of an enzyme mixture (FLAG-GK, 20 U/ml G6PDH) cooled in ice was added to it, and 10 μl of a substrate, 25 mM glucose was added to it, and the reaction was initiated (final glucose concentration=2.5 mM).
After the start of the reaction, the increase in the absorbance at 405 nm was measured for 10 minutes at intervals of 30 seconds, and the increase for the first 5 minutes was used for evaluating the compound tested. FLAG-GK was added so that the absorbance increase after 5 minutes in the presence of 1% DMSO could be from 0.05 to 1.0.
The OD level of the DMSO control was set as 100%; and the OD level of the test compound at different concentrations was determined. From the OD level at each concentration, Emax (%) and EC50 (μM) were computed and used as the index of the GK-activating potency of the compound.

SMILES	Emax	EC50
CC(=O)c1ccccc1Oc1cc2nc(-c3ccccn3)[nH]c2cc1Oc1ccc(C(=O)N(C)C)cc1 [Example 26, 5-(2-Acetyl-phenoxy)-6-(4-dimethylcarbamoyl-phenoxy)-2-pyridin-2-yl-1H-benzimidazole]	768%	2300 nM
COc1ccccc1Oc1cc(Oc2cccnc2)cc2[nH]c(-c3ccccn3)nc12 [Example 67, 4-(2-Methoxy-phenoxy)-2-pyridin-2-yl-6-(pyridin-3-yloxy)-1H-benzimidazole]	832%	1400 nM
